Values of other authors as cited in patent publication US5783700A, “Quinolic acid derivatives” (priority 1997, dated 1998).

How the values were obtained:
[1] = target: glycine binding site on the NMDA receptor; settings: [^3 H]-labeled ligand; cited from earlier work
[^3 H]-MK 801 binding = cited from earlier work
[2] = test system: NMDA receptor glycine binding; settings: cited from earlier work
[3] = test system: recognition site presumed to be located within the ion channel of the receptor complex; settings: cited from earlier work

| SMILES | Kd [1] | effect at 1 uM on [^3 H]-MK 801 binding ([^3 H]-MK 801 binding; 1 uM) | IC50 ([^3 H]-MK 801 binding; [^3 H]-MK 801, depending on brain region, read-out: IC50 (inhibition concentration)) | inhibition of glycine binding [2] | effect on binding of phencyclidine-like compounds [3] |
| --- | --- | --- | --- | --- | --- |
| O=C(O)c1cc(O)c2c(Cl)cc(Cl)cc2n1 [[^3 H]-5,7-dichlorokynurenic acid] | 0.029 µM | – | – | – | – |
| O=C(O)c1cc(O)c2ccc(Cl)cc2n1 [7-chlorokynurenic acid] | – | little effect | 30 to 40 µM | competitive inhibitor of glycine binding | decrease binding |
